Results published in US6905861B2, “D-aminoacylases, method for producing the same, and method for producing D-amino acids using the same” (Daicel Chemical Industries, Ltd., priority 1998, dated 2005).

Experiments:
[1] = tested on: D-aminoacylase; test: Effects of various metal salts and reagents on residual enzyme activity; assay type: biochemical, Hypomyces mycophilus IFO 6785; conditions: for Relative activity (%): pH 9.5; for effect on the enzyme (in words): summary of Tables 6 and 7
[2] = tested on: D-aminoacylase (crude enzyme) of Auricularia auriculajudae IFO 5949; test: Crude enzyme activity for each N-Ac-D-amino acid substrate; assay type: biochemical; conditions: Auricularia auriculajudae IFO 5949 crude enzyme; 20 mM substrate, 1 mM CoCl2, 50 mM phosphate buffer pH 7.0
Description: (§1) Auricularia auriculajudae IFO 5949, Pythium aphanidermaatum IFO 7030, and Menisporopsis novaezelandiae IFO 9179 were each inoculated into sterilized media (100 ml each) (Czapek Dox Broth for IFO 5949, YM1 medium for IFO 7030, and POTATO DEXTROSE BROTH for IFO 9179) in 500-ml Erlenmeyer flasks. The fungi were cultured on a rotary shaker at 210 rpm at 24° C. for 7 days and collected by centrifugation using a […] centrifuge with a RPR10-2 rotor at 8,000 rpm (12,500×g) for 20 min. […] Disrupted cells thus obtained were centrifuged using a […] centrifuge with a RPR20-2 rotor at 17,500 rpm (38,000×g) for 30 min at 4° C. to obtain the supernatant as the crude enzyme. […] Figures in the table denote the amount (mM) of D-amino acids produced from the corresponding N-acetyl-D-amino acids. The D-aminoacylase activity was detected in all the strains tested, producing D-amino acid from the corresponding N-acetyl-D-amino acid.

[3] = tested on: D-aminoacylase (crude enzyme) of Menisporopsis novaezelandiae IFO 9179; test: as above; assay type: biochemical; conditions: Menisporopsis novaezelandiae IFO 9179 crude enzyme; 20 mM substrate, 1 mM CoCl2, 50 mM phosphate buffer pH 7.0
Description: as §1

[4] = tested on: D-aminoacylase; test: Substrate specificity of purified D-aminoacylase (TNBS method); assay type: biochemical, Hypomyces mycophilus IFO 6785; conditions: 20 mM substrate, 50 mM Tris-HCl pH 7.5, 30° C., 20 min
Description: The enzyme activity was assayed by determining the amount of amino acid produced using the TNBS method and the HPLC method. In the TMBS method, 100 mM Na2B4O7 (0.5 ml) was added to a sample solution containing amino acid (0.5 ml), 20 μl of 110 mM TNBS (trinitrobenzenesulfonic acid) was then added, and the resulting mixture was quickly stirred. After 5 min, 100 mM NaH2PO4 containing 1.5 mM Na2SO3 (2 ml) was added to the reaction mixture to terminate the color reaction, and the absorbance at 420 nm was measured. HPLC was performed by subjecting a sample solution containing amino acid to high-performance liquid chromatography using an ODS column (column, Wakosil II 5C18 (4.6 dia.×250 mm) (Wako Pure Chemical); eluent, CH3CN/50 mM KH2PO4. H3PO4 (pH 2.5)=2:8; detection, A280 nm; and flow rate, 1.0 ml/min). The retention times were 3.5 min for D-tryptophan and 9.8 min for N-acetyl-D-tryptophan. Using D-tryptophan as the assay standard, one unit (or U) of the enzyme was defined as the amount of the enzyme required to produce 1 μmol of D-tryptophan at 30° C. for 1 min.
Substrate specificity of the enzyme was expressed as the percentage of the specific activity compared with that for N-acetyl-D-methionine taken as 100%. N-chloroacetyl-D-phenylalanine, N-acetyl-D-valine, N-acetyl-D-phenylalanine, N-acetyl-D-tryptophan, N-acetyl-D-leucine, N-acetyl-L-valine, N-acetyl-L-phenylalanine, N-acetyl-L-tryptophan, and N-acetyl-L-leucine substrates were used for the comparison. The enzyme reaction was performed in 50 mM Tris-HCl (pH 7.5) containing 1 µl of the enzyme solution and 20 mM of each substrate (total volume 1.0 ml) at 30° C. for 20 min, and terminated by adding 0.5 ml of a TCA reaction terminating solution according to Tsai et al. (consisting of 110 mM trichloroacetic acid, 220 mM sodium acetate, and 330 mM acetic acid). The enzyme activity was assayed by the TNBS method as described in Example 4(2).

[5] = metal ion 1 mM, kept at 40° C. for 30 min, residual activity, no addition = 100
[6] = compound 1 mM, kept at 40° C. for 30 min, residual activity, no addition = 100

[Ca+2].[Cl-].[Cl-] [CaCl2]
Relative activity (%) [1, 5]: 104%

[Cl-].[Cl-].[Co+2] [CoCl2]
Relative activity (%) [1]: 63.1%

[Co+2] [Co^2+]
effect on the enzyme (in words) [1]: inhibited

O=S(=O)([O-])[O-].[Cu+2] [CuSO4]
Relative activity (%) [1, 6]: 20.4%

[Cu+2] [Cu^2+]
effect on the enzyme (in words) [1]: inhibited

O=C(O)CN(CCN(CC(=O)O)CC(=O)O)CC(=O)O [EDTA]
Relative activity (%) [1, 6]: 96.0% | effect on the enzyme (in words) [1]: not being inhibited

O=C(O)CN(CCOCCOCCN(CC(=O)O)CC(=O)O)CC(=O)O [EGTA]
Relative activity (%) [1, 6]: 90.9%

[Cl][Hg][Cl] [HgCl2]
Relative activity (%) [1]: 13.4%

[Hg+2] [Hg^2+]
effect on the enzyme (in words) [1]: inhibited

NO [Hydroxylamine]
Relative activity (%) [1, 6]: 96.2%

NC(=O)CI [Iodoacetamide]
Relative activity (%) [1]: 185% | effect on the enzyme (in words) [1]: activated

[Cl-].[K+] [KCl]
Relative activity (%) [1, 5]: 102%

[Cl-].[Cl-].[Mg+2] [MgCl2]
Relative activity (%) [1]: 98.0%

[Cl][Mn][Cl] [MnCl2]
Relative activity (%) [1, 5]: 100%

CC(=O)N[C@H](CC(=O)O)C(=O)O [N-Acetyl-D-aspartic acid]
amount of D-amino acids produced from the corresponding N-acetyl-D-amino acids [2]: 1.10 mM | amount of D-amino acids produced from the corresponding N-acetyl-D-amino acids [3]: 0.66 mM

CC(=O)N[C@H](CC(N)=O)C(=O)O [N-acetyl-D-asparagine]
percentage of the specific activity compared with that for N-acetyl-D-methionine taken as 100%, D-enantiomer [4]: 0%

CC[C@@H](C)[C@@H](NC(C)=O)C(=O)O [N-acetyl-D-isoleucine]
percentage of the specific activity compared with that for N-acetyl-D-methionine taken as 100%, D-enantiomer [4]: 0%
